Source: paper PMC12040169 (PLOS Biology, 2025)

Assay: in vitro
Settings: human, hela cells, % viability

SMILES | viability at 28.5 h, 10 µM [%]
Cc1n[nH]c(C)c1CNC(=O)CCc1ccc(Cl)cc1 [CBK283185] | 95
Cc1ccc(CN(CCCn2ccnc2)Cc2ccccc2O)o1 [CBK283189] | 99.8
Cc1ccc(CN(Cc2nccn2C)C2CC(C)(C)NC(C)(C)C2)o1 [CBK283190] | 112
Cc1ccc(CN(Cc2ncc[nH]2)C2CC(C)(C)NC(C)(C)C2)o1 [CBK283191] | 96
CC1(C)CC(N(Cc2ccccc2)Cc2c[nH]cn2)CC(C)(C)N1 [CBK283196] | 103
CN(C)CCCN(Cc1ccco1)Cc1c[nH]nc1-c1cccs1 [CBK283198] | 106
Cc1nc2sccn2c1CN(CCCN(C)C)Cc1ccco1 [CBK283199] | 92.5
OC1CCN(Cc2ccc(-c3ccc(F)cc3F)o2)CC1 [CBK283200] | 98.9
CCn1cc(CN(CCCN(C)C)Cc2ccc(C)o2)c(C)n1 [CBK283201] | 95.5
Cn1ccnc1CN1C[C@@H]2CCCN2C[C@@H]1Cc1ccccc1 [CBK283202] | 91.1
CN(CCc1ccccc1)Cc1nc2ccccc2c(=O)[nH]1 [CBK283204] | 98.7
O=c1[nH]c(CN2CCCCCCC2)nc2ccccc12 [CBK283205] | 117
CC1CCc2n[nH]c(C(=O)N3CCC(O)C(C)C3)c2C1 (stereo not drawn) [CBK283207] | 107
O=C(NCCCc1ccccn1)c1cc2ccc(F)cc2[nH]1 [CBK283211] | 84.4
CC1CCc2n[nH]c(C(=O)NCCCC3CCOC3)c2C1 (stereo not drawn) [CBK283212] | 102
O=C(NCCCC1CCOC1)c1cc2ccc(F)cc2[nH]1 (stereo not drawn) [CBK283213] | 110
CCOC(=O)C(C)NC(=O)c1cc2ccc(F)cc2[nH]1 (stereo not drawn) [CBK283214] | 107
C1=CCC(CN(CCCn2ccnc2)Cc2cccnc2)CC1 (stereo not drawn) [CBK283216] | 88.6
C=Cn1ncc(CN(CCCn2ccnc2)CC2CC=CCC2)c1C (stereo not drawn) [CBK283219] | 96.8
CC(C)C1c2cccn2CCN1C(=O)c1cc(-c2ccccn2)n[nH]1 (stereo not drawn) [CBK283223] | 81.9
CCC1c2ccc(C)n2CCN1C(=O)c1cc(-c2ccccn2)n[nH]1 (stereo not drawn) [CBK283225] | 86.4
C[C@@H](Cn1c(C(F)(F)F)cc2cccnc21)NC(=O)C1CCC1 [CBK283230] | 109
Cc1ccc(CN(CCCN2CCOCC2)Cc2ccoc2)o1 [CBK283234] | 81
Cc1ccc(CN(CCN(C)C)Cc2c(C)nn(C(C)C)c2C)o1 [CBK283235] | 100

SMILES | viability at 28.5 h, 10 µM [%]
CC(NC(=O)CSCc1ccco1)c1ccccc1 (stereo not drawn) [CBK283237] | 100
CC(Cc1cccs1)NC(=O)CSCc1ccco1 (stereo not drawn) [CBK283238] | 84.8
Cc1ccc2c(CC(=O)N(C)CCc3cn[nH]c3)coc2c1 [CBK283239] | 90.8
Cc1ccc2c(CC(=O)NCCn3cncn3)coc2c1 [CBK283240] | 93.8
COc1ccc(C2(CN3CCC(NC(C)=O)CC3)CCCC2)cc1 [CBK283241] | 85.4
COc1cccc(C2(O)CCCC3CN(C(C)=O)CC32)c1 (stereo not drawn) [CBK283242] | 80.8
Cc1cc(C)n(C(C)CNC(=O)c2cc(C3CC3)on2)n1 (stereo not drawn) [CBK283243] | 103
CC(Cc1cccs1)NC(=O)c1cc(C2CC2)on1 (stereo not drawn) [CBK283244] | 107
C[S+]([O-])CCNC(=O)c1cnn(-c2ccc(F)cc2)c1 (stereo not drawn) [CBK283245] | 89.1
Cc1c(C(=O)NCCCCn2ccnc2)[nH]c2ccccc12 [CBK283246] | 94.3
CCc1[nH]c2ccc(C(=O)NC3CCCOC3)cc2c1C (stereo not drawn) [CBK283247] | 95.9
Cc1ccc(CN(CCCn2ccnc2)Cc2ccsc2)o1 [CBK283253] | 96.4
CCCN1CCC(CNC(=O)c2cc3c(OC)cccc3n2C)CC1 [CBK283255] | 90.1
CCn1cc(CCC(=O)NC2CCCOC2)c2ccccc21 (stereo not drawn) [CBK283256] | 88.7
CCn1c(C)cc2cc(NC(=O)c3cnc(C)nc3C)ccc21 [CBK283260] | 104
COc1ccccc1CC(C)NC(=O)c1ccc2nc(C)[nH]c2c1 (stereo not drawn) [CBK283261] | 86.1
Cc1c(CN(Cc2ccccc2)CC2CCCO2)cnn1C (stereo not drawn) [CBK283263] | 94.3
Cc1nn(C)cc1CN(Cc1ccccc1)CC1CCCO1 (stereo not drawn) [CBK283264] | 94.4
CCn1cc(CN(Cc2ccccc2)CC2CCCO2)c(C)n1 (stereo not drawn) [CBK283265] | 93.7
CCc1nc2ccc(NC(=O)CCCc3ccncc3)cc2[nH]1 [CBK283268] | 111
Cc1c(C(=O)N(C)CCc2ccncc2)[nH]c2ccccc12 [CBK283271] | 104
Cc1ncc(C(=O)NC2(c3cccc(F)c3)CCCC2)c(C)n1 [CBK283273] | 89.4
O=C(NCCN1CCC(O)(c2cccc(F)c2)CC1)C1CCCCC1 [CBK283281] | 96.2
COc1cccc2c1cc(C(=O)NCc1cc(C3CC3)[nH]n1)n2C [CBK283282] | 80.4

SMILES | viability at 28.5 h, 10 µM [%]
COc1cccc2c1cc(C(=O)NCCCC1CCOC1)n2C (stereo not drawn) [CBK283284] | 93.4
O=C(NCCN1CCC(O)(c2cccc(F)c2)CC1)C1CCCC1 [CBK283285] | 110
C=CCNC(=O)CCn1c(C(C)C)cc2cccnc21 [CBK283289] | 105
C=Cn1ncc(CN(Cc2ccc(C)o2)CC2CCCO2)c1C (stereo not drawn) [CBK283292] | 101
O=C(NCCCc1ccccn1)c1cc(C2CCCCC2)no1 [CBK283296] | 89.4
Cc1nc2ccc(C(=O)NCCCN3CC(C)CC(C)C3)cc2[nH]1 (stereo not drawn) [CBK283298] | 85.4
C=Cn1ncc(CN2CCC3(O)CCCCC3C2)c1C (stereo not drawn) [CBK283302] | 94.5
CC(c1ccco1)N(C)Cc1c[nH]nc1-c1ccc(O)cc1 (stereo not drawn) [CBK283303] | 89
C[S+]([O-])CCNC(=O)c1cc2c(Cl)cccc2[nH]1 (stereo not drawn) [CBK283304] | 83.9
Cc1cc(C(=O)NCC[S+](C)[O-])c(-n2cccc2)s1 (stereo not drawn) [CBK283305] | 96.7
CCn1cncc1CN1CCN(CC2(c3ccc(C)cc3)CC2)CC1 [CBK283307] | 105
CC(Cc1ccccn1)N(C)C(=O)c1cnn(-c2ccc(F)cc2)c1 (stereo not drawn) [CBK283316] | 99.6
OC1CCN(Cc2c(-c3cccs3)[nH]c3ncccc23)CC1 [CBK283318] | 79.9
O[C@@H]1CN(Cc2ccc(F)c(F)c2)CC[C@H]1NC1CC1 [CBK283319] | 94
Cc1ccc(C2(O)CCN(CCNC(=O)C3CCCCC3)CC2)cc1 [CBK283323] | 97.4
CN(Cc1cccn1C)C(=O)c1cc(-c2cnn(C)c2)[nH]n1 [CBK283325] | 103
C=CCn1c2cc(C)oc2c2cnn(CC(=O)N(C)C)c(=O)c21 [CBK283326] | 101
OCc1c(-c2ccc(F)cc2)[nH]c2ncccc12 [CBK283328] | 86.5
Cc1csc2c(C3CCCN(C(=O)c4cccnc4)C3)nc(C)n12 (stereo not drawn) [CBK283329] | 93.4
Cn1c(=O)n(CC(=O)NC2(C)C3CCC(C3)C2(C)C)c2cccnc21 (stereo not drawn) [CBK283330] | 84.9
O=C1Nc2c(cnn2-c2ccccc2Cl)C2=NCCCN12 [CBK283331] | 100
O=C1NC2(CCc3ccccc31)CCN(C(=O)c1cccnc1)C2 (stereo not drawn) [CBK283335] | 96.5
COc1ccc(CN2CCC3(CCc4ccccc4C(=O)N3)C2)cc1 (stereo not drawn) [CBK283339] | 97.6
O=C(C1CCCC1)N1CC(n2nc(-c3cccs3)ccc2=O)C1 [CBK283345] | 86.8

SMILES | viability at 28.5 h, 10 µM [%]
O=C(c1cccs1)N1CC(n2nc(-c3cccs3)ccc2=O)C1 [CBK283347] | 97.3
O=C1CCC[C@]2(CN(Cc3ccccc3)C[C@H]2c2ccncc2)N1 [CBK283348] | 84.5
Cc1cccc([C@@H]2CN(Cc3ccccc3)C[C@]23CCCC(=O)N3)n1 [CBK283350] | 107
O=C(C1C2CCCCC21)N1CCC(c2nnc3n2CCCCC3)CC1 (stereo not drawn) [CBK283351] | 95.2
O=C1NC2(CCc3ccccc31)CCN(C(=O)CCn1cccn1)C2 (stereo not drawn) [CBK283352] | 91.2
O=C1CC2(CCN(S(=O)(=O)Cc3ccc(Cl)cc3)CC2)CN1 [CBK283355] | 102
COCC(=O)N1C[C@@H](c2ccc(F)c(F)c2)[C@@]2(CCCC(=O)N2)C1 [CBK283358] | 103
O=C1CC2(CCN(Cc3ccc(C(F)(F)F)cc3)CC2)CN1 [CBK283359] | 86.8
O=C(NC[C@H]1CC[C@H](c2nnc(-c3ccsc3)o2)CC1)C1CC1 [CBK283361] | 85.5
O=C(NC[C@H]1CC[C@H](c2nnc(-c3ccsc3)o2)CC1)C1CCC1 [CBK283363] | 87.1
Cc1ncc(CNC(=O)C2CC2)c(-c2cn(C)c3ccccc23)n1 [CBK283366] | 103
O=C1CCOC[C@]2(CN(Cc3ccccc3)C[C@H]2c2ccccc2)N1 [CBK283367] | 92.6
CC(=O)N1C[C@@H](c2cccc(C)c2)[C@@H]2CN(Cc3cccnc3)CC[C@@H]21 [CBK283368] | 89.7
CC(=O)N1C[C@@H](c2cccc(C)c2)[C@@H]2CN(Cc3ccncc3)CC[C@@H]21 [CBK283370] | 96.1
COc1cccc([C@H]2CN(C(C)=O)[C@@H]3CCN(C4CCCC4)C[C@H]23)c1 [CBK283375] | 89.7
O=C(C1CC1)N1CCC(c2nnc(-c3ccsc3)o2)CC1 [CBK283376] | 91.6
O=C(C1CCCC1)N1CCC(c2nnc(-c3ccsc3)o2)CC1 [CBK283379] | 86.5
O=C(C1CCCCC1)N1CCC(c2nnc(-c3ccsc3)o2)CC1 [CBK283380] | 104
O=C(C1CC1)N1C[C@@H](c2ccsc2)[C@@H]2CN(C3CCCC3)CC[C@@H]21 [CBK283382] | 107
Cc1c(C(=O)N2CCC(c3cc4ncccc4[nH]3)CC2)cnn1C [CBK283384] | 88.1
O=C(c1ccccc1)N1CCC(c2cc3ncccc3[nH]2)CC1 [CBK283385] | 89.4
